Experimental data published in ChEMBL document CHEMBL3739366, “Discovery of HTL6641, a dual orexin receptor antagonist with differentiated pharmacodynamic properties” (Medchemcomm, 2015).

Experiments:
[1] = biological target: T1, Orexin receptor type 2 (Homo sapiens, UniProt O43614); assay: Displacement of [3H]EMPA from human orexin receptor-2 expressed in HEK293 cells after 90 mins by scintillation counting; assay type: cell-based
T1 sequence (O43614 whole entry): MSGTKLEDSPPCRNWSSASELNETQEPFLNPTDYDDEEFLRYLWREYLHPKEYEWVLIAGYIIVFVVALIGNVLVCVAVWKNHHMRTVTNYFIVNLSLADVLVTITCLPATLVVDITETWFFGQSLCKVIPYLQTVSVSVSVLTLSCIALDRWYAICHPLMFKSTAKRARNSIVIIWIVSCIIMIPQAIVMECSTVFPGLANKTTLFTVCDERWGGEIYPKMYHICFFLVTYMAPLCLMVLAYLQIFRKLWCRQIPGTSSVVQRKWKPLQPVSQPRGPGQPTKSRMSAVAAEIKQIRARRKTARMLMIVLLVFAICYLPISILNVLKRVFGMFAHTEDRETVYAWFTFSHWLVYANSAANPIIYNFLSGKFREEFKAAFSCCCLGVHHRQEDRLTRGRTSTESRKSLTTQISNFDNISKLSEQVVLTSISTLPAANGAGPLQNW

[2] = Mean residence time in Sprague-Dawley rat; assay type: ADME, organism-based; details: in vivo
[3] = Half life in beagle dog at 1 mg/kg, po; assay type: ADME, organism-based, Canis lupus familiaris; details: in vivo
[4] = test system: Rattus norvegicus; assay: AUC (infinity) in Sprague-Dawley rat at 2 mg/kg, po; assay type: ADME, organism-based; design: dose 2 mg/kg, route oral, time infinity; details: in vivo
[5] = test system: Canis familiaris; assay: AUC (infinity) in beagle dog at 1 mg/kg, po; assay type: ADME, organism-based, Canis lupus familiaris; design: dose 1 mg/kg, route oral, time infinity; details: in vivo
[6] = Tmax in Sprague-Dawley rat at 2 mg/kg, po; assay type: ADME, organism-based; details: in vivo
[7] = biological target: T2, Cytochrome P450 2C8 (Homo sapiens, UniProt P10632); assay: Inhibition of CYP2C8 (unknown origin); assay type: ADME
T2 sequence (P10632 whole entry): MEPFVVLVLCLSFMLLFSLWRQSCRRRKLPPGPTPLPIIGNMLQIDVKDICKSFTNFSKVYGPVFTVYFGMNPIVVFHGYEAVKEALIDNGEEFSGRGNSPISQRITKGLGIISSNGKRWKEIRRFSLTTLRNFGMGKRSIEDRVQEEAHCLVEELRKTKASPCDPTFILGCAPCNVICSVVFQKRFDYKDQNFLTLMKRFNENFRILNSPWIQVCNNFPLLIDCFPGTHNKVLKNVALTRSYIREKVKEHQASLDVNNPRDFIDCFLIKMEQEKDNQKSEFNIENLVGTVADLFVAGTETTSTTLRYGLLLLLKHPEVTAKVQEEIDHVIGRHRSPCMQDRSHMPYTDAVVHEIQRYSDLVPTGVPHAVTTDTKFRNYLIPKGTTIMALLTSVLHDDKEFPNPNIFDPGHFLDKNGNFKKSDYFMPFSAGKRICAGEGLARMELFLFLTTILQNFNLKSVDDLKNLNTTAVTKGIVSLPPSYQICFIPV

[8] = Bidirectional apparent permeability of the compound across human Caco2 cells; assay type: ADME, cell-based; details: Caco-2, read-out: permeability
[9] = Plasma protein binding in human; assay type: ADME, cell-free; details: read-out: PPB (converted)
[10] = Half life in rat hepatocytes; assay type: ADME, cell-based, Hepatocyte
[11] = Half life in cynomolgus monkey hepatocytes; assay type: ADME, cell-based, Macaca fascicularis, Hepatocyte
[12] = test system: Salmonella typhimurium; assay: Genotoxicity in Salmonella typhimurium by Ames test in presence of S9 fraction; assay type: toxicity, organism-based; details: salmonella enterica subsp. enterica serovar typhimurium
[13] = test system: Rattus norvegicus; assay: Antiinsomnic activity in CD1 rat assessed as reduction of time spent awake at 3 to 10 mg/kg, po administered at circadian time 18 hrs measured after 3 hrs; assay type: functional; design: scale not given: the % may be the effect or the level left
[14] = test system: Rattus norvegicus; assay: Antiinsomnic activity in CD1 rat assessed as increase of REM sleep at 3 mg/kg, po administered at circadian time 18 hrs measured after 3 hrs; assay type: functional
[15] = test system: Rattus norvegicus; assay: Antiinsomnic activity in CD1 rat assessed as increase of NREM sleep at 3 mg/kg, po administered at circadian time 18 hrs measured after 3 hrs; assay type: functional
[16] = biological target: T3, Orexin receptor type 2 (Homo sapiens) (UniProt O43614)
T3 sequence (whole entry): T1 sequence (O43614 whole entry)
Description: Binding affinity to orexin receptor-2 (unknown origin) assessed as dissociation half-life by SPR assay

[17] = biological target: T3, Orexin receptor type 2 (Homo sapiens); remark: listed apart in the source
Description: Binding affinity to orexin receptor-2 (unknown origin) assessed as dissociation half-life by Motulsky-Mahan radioligand binding assay

[18] = biological target: T3, Orexin receptor type 2 (Homo sapiens); details: CHO
Description: Antagonist activity at human orexin receptor-2 expressed in CHO cells assessed as orexin-A-induced ERK1/2 phosphorylation after 2 hrs by fluorescence assay

Compound COc1cc(N2C(=O)N(Cc3c(F)cc(F)cc3F)c3ncccc3S2(=O)=O)cnc1OC has a Ki [1] of 2.51 nM, an MRT [2] of 1.9 h and a half-life [3] of 7.1 h. It also gave an AUC [4] of 1220 ng·h/mL, an AUC [5] of 2440 ng·h/mL and a Tmax [6] of 0.5 h. It also gave an IC50 [7] greater than 10000 nM, a Papp [8] of 52 ×10⁻⁶ cm/s and a fraction unbound [9] of 0.007. The half-life [10] was greater than 1.83 h, the half-life [11] was greater than 4.17 h and the Activity [12] was “Non-toxic”. The Activity [13] was 18.5%, the Activity [14] was 70.6% and the Activity [15] was 28.8%. It also gave a T1/2 [16] of 4.2 min, a T1/2 [17] of 7.6 min and a pKb [18] of 7.3.
